Source: US20100152434A1, “Protein Kinase-binding Nucleosides and Associated Methods” (priority 2007, published 2010)
Where two headings read alike, the source gives them in different places.

What was measured:
MALME-3M = experiment: cells; conditions: Homo sapiens
OVCAR-5 = experiment: cells; conditions: Homo sapiens
HOP-62 = experiment: cells; conditions: Homo sapiens
SNB-75 = experiment: cells; conditions: Homo sapiens
BT-549 = experiment: cells; conditions: Homo sapiens
SF-295 [1] = system: SF-295
NCI/ADR-RES = experiment: cells; conditions: Homo sapiens
NCI-H23 = experiment: cells; conditions: Homo sapiens
SF-295 [2] = experiment: cells; conditions: Homo sapiens
T-47D = experiment: cells; conditions: Homo sapiens, T47D
MDA-MB-231/ATCC = experiment: cells; conditions: Homo sapiens
MOLT-4 = experiment: cells; conditions: Homo sapiens
SK-OV-3 = experiment: cells; conditions: Homo sapiens
NCI-H322M = conditions: NCI-H322M
SR = experiment: cells; conditions: Homo sapiens

CNC(=O)NC[C@H]1O[C@@H](n2cnc3c(NC(=O)Nc4ccccc4)ncnc32)[C@H](O[Si](C)(C)C(C)(C)C)[C@@H]1CC(=O)N(C)OC [Compound 13, 2′-O-(tert-Butyldimethylsilyl)-3′,5′-dideoxy-3′-[(N-methoxy-N-methylcarboxamido)methyl]-5′-[(N-methylcarbamoyl)amino]-N^6-(N-phenylcarbamoyl)adenosine]
TGI (HCT-15): >1.00E−4 Molar | Percent Growth (HCT-15; Log10 Concentration −4.0): 37% | Percent Growth (HCT-15; Log10 Concentration −5.0): 40% | Percent Growth (HCT-15; Log10 Concentration −6.0): 93% | Percent Growth (HCT-15; Log10 Concentration −7.0): 94% | Percent Growth (HCT-15; Log10 Concentration −8.0): 96% | TGI (OVCAR-8): >1.00E−4 Molar | Percent Growth (OVCAR-8; Log10 Concentration −4.0): 22% | Percent Growth (OVCAR-8; Log10 Concentration −5.0): 48% | Percent Growth (OVCAR-8; Log10 Concentration −6.0): 103% | Percent Growth (OVCAR-8; Log10 Concentration −7.0): 106% | Percent Growth (OVCAR-8; Log10 Concentration −8.0): 107% | TGI (HOP-92): 2.43E−5 Molar | Percent Growth (HOP-92; Log10 Concentration −4.0): −43% | Percent Growth (HOP-92; Log10 Concentration −5.0): 27% | Percent Growth (HOP-92; Log10 Concentration −6.0): 67% | Percent Growth (HOP-92; Log10 Concentration −7.0): 93% | Percent Growth (HOP-92; Log10 Concentration −8.0): 80% | TGI (K-562): >1.00E−4 Molar | Percent Growth (K-562; Log10 Concentration −4.0): 24% | Percent Growth (K-562; Log10 Concentration −5.0): 17% | Percent Growth (K-562; Log10 Concentration −6.0): 82% | Percent Growth (K-562; Log10 Concentration −7.0): 95% | Percent Growth (K-562; Log10 Concentration −8.0): 95% | TGI (OVCAR-4): >1.00E−4 Molar | Percent Growth (OVCAR-4; Log10 Concentration −4.0): 46% | Percent Growth (OVCAR-4; Log10 Concentration −5.0): 60% | Percent Growth (OVCAR-4; Log10 Concentration −6.0): 96% | Percent Growth (OVCAR-4; Log10 Concentration −7.0): 100% | Percent Growth (OVCAR-4; Log10 Concentration −8.0): 100% | TGI (NCI-H522): >1.00E−4 Molar | Percent Growth (NCI-H522; Log10 Concentration −4.0): 31% | Percent Growth (NCI-H522; Log10 Concentration −5.0): 51% | Percent Growth (NCI-H522; Log10 Concentration −6.0): 84% | Percent Growth (NCI-H522; Log10 Concentration −7.0): 87% | Percent Growth (NCI-H522; Log10 Concentration −8.0): 90% | GI50 (MALME-3M): 11.4 µM | CC50 (MALME-3M; read-out: LC50): > 100 µM | GI50 (OVCAR-5; OVCAR-5): 38.2 µM | CC50 (OVCAR-5; OVCAR-5, read-out: LC50): > 100 µM | GI50 (HOP-62; HOP-62): 24.9 µM | CC50 (HOP-62; HOP-62, read-out: LC50): > 100 µM | TGI (HT29): >1.00E−4 Molar | Percent Growth (HT29; Log10 Concentration −4.0): 17% | Percent Growth (HT29; Log10 Concentration −5.0): 32% | Percent Growth (HT29; Log10 Concentration −6.0): 100% | Percent Growth (HT29; Log10 Concentration −7.0): 107% | Percent Growth (HT29; Log10 Concentration −8.0): 104% | TGI (KM12): >1.00E−4 Molar | Percent Growth (KM12; Log10 Concentration −4.0): 30% | Percent Growth (KM12; Log10 Concentration −5.0): 62% | Percent Growth (KM12; Log10 Concentration −6.0): 106% | Percent Growth (KM12; Log10 Concentration −7.0): 108% | Percent Growth (KM12; Log10 Concentration −8.0): 101% | TGI (HL-60(TB)): 4.34E−6 Molar | Percent Growth (HL-60(TB); Log10 Concentration −4.0): −58% | Percent Growth (HL-60(TB); Log10 Concentration −5.0): −48% | Percent Growth (HL-60(TB); Log10 Concentration −6.0): 84% | Percent Growth (HL-60(TB); Log10 Concentration −7.0): 86% | Percent Growth (HL-60(TB); Log10 Concentration −8.0): 95% | GI50 (SNB-75; SNB-75): 12.7 µM | CC50 (SNB-75; SNB-75, read-out: LC50): > 100 µM | GI50 (BT-549; BT-549): 29 µM | CC50 (BT-549; BT-549, read-out: LC50): > 100 µM | TGI (SF-295 [1]): >1.00E−4 Molar | Percent Growth (SF-295 [1]; Log10 Concentration −4.0): 20% | Percent Growth (SF-295 [1]; Log10 Concentration −5.0): 48% | Percent Growth (SF-295 [1]; Log10 Concentration −6.0): 98% | Percent Growth (SF-295 [1]; Log10 Concentration −7.0): 93% | Percent Growth (SF-295 [1]; Log10 Concentration −8.0): 93% | GI50 (NCI/ADR-RES): > 100 µM | CC50 (NCI/ADR-RES; read-out: LC50): > 100 µM | GI50 (NCI-H23; NCI-H23): 57.2 µM | CC50 (NCI-H23; NCI-H23, read-out: LC50): > 100 µM | GI50 (SF-295 [2]; SF-295): 9.09 µM | CC50 (SF-295 [2]; SF-295, read-out: LC50): > 100 µM | TGI (SW-620): >1.00E−4 Molar | Percent Growth (SW-620; Log10 Concentration −4.0): 50% | Percent Growth (SW-620; Log10 Concentration −5.0): 65% | Percent Growth (SW-620; Log10 Concentration −6.0): 93% | Percent Growth (SW-620; Log10 Concentration −7.0): 102% | Percent Growth (SW-620; Log10 Concentration −8.0): 99% | GI50 (T-47D): 13.9 µM | CC50 (T-47D; read-out: LC50): > 100 µM | GI50 (MDA-MB-231/ATCC; MDA-MB-231): 12.3 µM | CC50 (MDA-MB-231/ATCC; MDA-MB-231, read-out: LC50): > 100 µM | GI50 (MOLT-4; MOLT-4): 2.23 µM | CC50 (MOLT-4; MOLT-4, read-out: LC50): > 100 µM | TGI (IGROV1): 6.57E−5 Molar | Percent Growth (IGROV1; Log10 Concentration −4.0): −6% | Percent Growth (IGROV1; Log10 Concentration −5.0): 26% | Percent Growth (IGROV1; Log10 Concentration −6.0): 82% | Percent Growth (IGROV1; Log10 Concentration −7.0): 89% | Percent Growth (IGROV1; Log10 Concentration −8.0): 89% | GI50 (SK-OV-3; SK-OV-3): 52.7 µM | CC50 (SK-OV-3; SK-OV-3, read-out: LC50): > 100 µM | TGI (U251): >1.00E−4 Molar | Percent Growth (U251; Log10 Concentration −4.0): 25% | Percent Growth (U251; Log10 Concentration −5.0): 37% | Percent Growth (U251; Log10 Concentration −6.0): 90% | Percent Growth (U251; Log10 Concentration −7.0): 101% | Percent Growth (U251; Log10 Concentration −8.0): 97% | TGI (NCI-H322M): >1.00E−4 Molar | Percent Growth (NCI-H322M; Log10 Concentration −4.0): 73% | Percent Growth (NCI-H322M; Log10 Concentration −5.0): 90% | Percent Growth (NCI-H322M; Log10 Concentration −6.0): 102% | Percent Growth (NCI-H322M; Log10 Concentration −7.0): 98% | Percent Growth (NCI-H322M; Log10 Concentration −8.0): 97% | GI50 (SR): 1.27 µM | CC50 (SR; read-out: LC50): 9.43 µM
